The values below come from US20090298708A1, “2'-DEOXY-2'-FLUORO-BETA-D-ARABINONUCLEOSIDE 5'-TRIPHOSPHATES AND THEIR USE IN ENZYMATIC NUCLEIC ACID SYNTHESIS” (priority 2006, published 2009).

One test has as its target T1, DV DNA polymerase (Pyrococcus sp., UniProt Q51334, D141A/DEL493-1029/E143A).
T1 construct: purchased New England Biolabs; host or cells: E. coli
The test can be described thus: Dropout assay, fidelity of incorporation by DV. Type of test: biochemical, Pyrococcus species GB-D. The note with it: 30 min reaction time, 25 μM triphosphates, 55° C., template A: PF41, G: PF43, T: PF21, C: PF23. As for the experimental part: (§1) FIG. 11A illustrates the fidelity of 2′F-araATP incorporation on a DNA template PF41 by DV and 9N DNA polymerases. Reaction conditions: 0.8 unit DV and 9N, 25 μM triphosphates at 55° C. in 30 μL reaction volume; incubation time: 30 min. Group 1 & 5: dNTPs; 2 & 6: dropout of dATP; 3 & 7: 2′F-araNTPs, 4 & 8: dropout of 2′F-araATP; 27mer control DNA is PF39.
(§2) FIG. 11B illustrates the fidelity of 2′F-araGTP incorporation on DNA template PF43 by DV and 9N DNA polymerases. Reaction conditions: primer/template (1:1 molar ratio): 100 nM; 0.4 μL (0.8 unit) DV, 9N, 25 μM triphosphate concentration at 55° C. in 30 μL reaction volume. Reaction time for dNTPs (group 1, 5) was 30 min and others were shown above. Group 1 & 5: dNTPs; 2 & 6: drop out dGTP (i.e. dTTP, dCTP and dATP), 3 & 7: 2TF-araNTPs, 4 & 8: drop out 2′F-araGTP; lane P is the template PF41 as the full-length product control; PF39 is a 27-nt DNA control. All samples were analyzed by 12% denaturing PAGE.
(§3) FIG. 12A illustrates the fidelity of 2′F-araTTP incorporation by DV and 9N DNA polymerases on a DNA template PF21. Reaction conditions: 100 nM primer/template (1:1 molar ratio); 0.4 μL (0.8 unit) DV or 9N, 25 μM triphosphate concentration at 55° C. in 30 μL reaction volume. Reaction time for dNTPs (group 1, 5) was 30 min and others were shown above. Groups 1 & 5: dNTPs; 2 & 6: drop out dTTP; 3 & 7: 2′F-araNTPs; 4 & 8: drop out 2′F-araTTPs. in B: group 1 & 5: dNTPs; 2 & 6: drop out dCTP; 3 & 7: 2′F-araNTPs; 4 & 8: drop out 2′F-araCTPs; PF39 is a 27-nt DNA control. All samples were analyzed by 12% denaturing PAGE.
(§4) FIG. 12B illustrates the fidelity study of 2′F-araCTP incorporation by DV and 9N DNA polymerases on a DNA template PF23. Reaction conditions: 100 nM primer/template (1:1 molar ratio); 0.4 μL (0.8 unit) DV or 9N, 25 μM triphosphate concentration at 55° C. in 30 μL reaction volume. Reaction time for dNTPs (groups 1, 5) was 30 min and others were shown above. Groups 1 & 5: dNTPs; 2 & 6: drop out dCTP; 3 & 7: 2′F-araNTPs; 4 & 8: drop out 2′F-araCTPs; PF39 is a 27-nt DNA control. All samples were analyzed by 12% denaturing PAGE.
(§5) “Dropout assays” (Ichida et al. (2005) J. Am. Chem. Soc. 127:2802-2803) were conducted to assess the fidelity of 2′F-araNTP incorporation (each of 2′F-araATP, 2′F-araCTP, 2′F-araGTP and 2′F-araTTP) by various DNA polymerases (FIGS. 11-14). For example, the 2′F-araNTP of interest is removed from the pool, and the ensuing synthesis on DNA template (e.g. PF21, PF23, PF41, PF43) assessed in comparison with a control reaction containing all four 2′F-araNTPs. For comparison, dropout experiments containing dNTPs are run in parallel. Full-length DNA and FANA products are obtained when all four dNTPs (group 1 and 5) and 2′F-araNTPs (groups 3 and 7) were available, however, some pausing may occur during synthesis of the arabinose modified oligomers. Apparent fidelity was calculated according to the equation:
(§6) 1−[(% full-length−2′F-araNTP)/(% full-length+2′F-araNTP)]
(§7) at 30 min reaction time (sample equation for dNTP values). >99% means that the full-length product was not detectable in our dropout assays.
(§8) “Dropout assays” (Ichida et al. (2005) J. Am. Chem. Soc. 127:2802-2803) were conducted to assess apparent fidelity of 2′F-araNTP incorporation by DV and 9N. In one of these assays, 2′F-araATP was removed from the pool, and the ensuing synthesis assessed in comparison with a control reaction containing all four 2′F-araNTPs. For comparison, dropout experiments containing dNTPs were run in parallel (FIGS. 11-14). Full-length DNA and FANA products were obtained when all four dNTPs (group 1 and 5) and 2′F-araNTPs (groups 3 and 7) were available, although some pausing was evident during synthesis of the arabinose modified oligomers.

A further test concerns the target T2, 9N DNA polymerase (Thermococcus sp., UniProt Q56366, E143D).
T2 construct: purchased New England Biolabs; host or cells: E. coli
As to the kind of experiment: Dropout assay, fidelity of incorporation by 9N. The test is classed as biochemical, Thermococcus species (strain 9° N-7). The settings on record: 30 min reaction time, 25 μM triphosphates, 55° C., template A: PF41, G: PF43, T: PF21, C: PF23. The method, then:
as §1, §2, §3, §4, §5, §6, §7, §8

On to `Nc1ccn([C@@H]2O[C@H](COP(=O)(O)OP(=O)(O)OP(=O)(O)O)[C@@H](O)[C@@H]2F)c(=O)n1` [2′F-araCTP, 1-(2-deoxy-2-fluoro-β-D-arabinofuranosyl)cytosine 5′-triphosphate], for which the “% Apparent Fidelity, 2′F-araNTP” value is “C: 50%” on DV DNA polymerase and “C: 43%” on 9N DNA polymerase.
Turning to `Cc1cn([C@@H]2O[C@H](COP(=O)(O)OP(=O)(O)OP(=O)(O)O)[C@@H](O)[C@@H]2F)c(=O)[nH]c1=O` [2′F-araTTP, 1-(2-deoxy-2-fluoro-β-D-arabino-furanosyl)thymine 5′-triphosphate], the “% Apparent Fidelity, 2′F-araNTP” value at DV DNA polymerase is given as “T: 3%”; on 9N DNA polymerase, “T: 76%”.
Consider `Nc1ccn([C@H]2C[C@H](O)[C@@H](COP(=O)(O)OP(=O)(O)OP(=O)(O)O)O2)c(=O)n1` [dCTP], for which the “% Apparent Fidelity, dNTP” value on DV DNA polymerase came out at 3%; on 9N DNA polymerase it was 82%.
With `Cc1cn([C@H]2C[C@H](O)[C@@H](COP(=O)(O)OP(=O)(O)OP(=O)(O)O)O2)c(=O)[nH]c1=O` [dTTP, reference compound], the “% Apparent Fidelity, dNTP” value is given as 19% on DV DNA polymerase and 32% at 9N DNA polymerase.
